Like-named read-outs stand apart in the source and are kept apart here.

Data set [1] has as its system Tat activity (Tat-induced viral transcription). In words: microbe, parasite or virus in culture. In kind it is cell-based, HIV-1. The following applies: for IC50: read-out: IC50 of Tat Activity. The protocol:
(§1) (A) (Upper panel) Doxycycline (Dox)-inducible Tat-expressing bl-DTR cells cultured in 96-well plates treated with two-fold serial dilutions of each compound in the presence of Dox (50 ng/mL). At 24 h after treatment, the activity of firefly luciferase (F-Luc), indicating Tat activity, was determined as described in the Materials and Methods section. (Bottom panel) TZM-bl cells were treated with two-fold serial dilutions of the indicated compound and then infected with the HIV-1NL4-3 strain at a multiplicity of infection (MOI) of 1. At 24 h after infection, the viral infectivity and cell viability were determined as described in the Materials and Methods section. […] (B) 2 × 10^5 TZM-bl cells growing in 6-well plates were infected with HIV-1 (MOI = 1), transfected with a Tat-expressing plasmid (2 μg) or treated with PMA ([…]) upon indicated compounds at indicated concentrations, respectively. At 24 h after treatment, LTR promoter activity was determined via a Bright-Glo Luciferase Assay Kit. The relative activities are represented as the mean ± SD (n = 3) compared with the DMSO vesicle. (C) The biotinylated TAR RNA (2 nM) was incubated with ARM peptide (100 nM) in the presence of increasing amounts of the hit compound and separated on a 3–12% native polyacrylamide gel. The mobility of biotinylated TAR RNA was detected by chemiluminescence.
The inhibitory effect of hit compounds on Tat-mediated transcription was determined using doxycycline (Dox)-inducible Tat-expressing TZM-bl cells that express the LTR-driven firefly luciferase (F-Luc) gene under the control of Tat upon Dox treatment, as described previously but with minor modifications. In brief, 1 × 10^4 of the cells were cultured in 96-well plates, treated with compounds at a concentration of 10 µM (in the second round of screening), and then treated with Dox (final concentration: 50 ng/mL). After 24 h, the inhibitory effect of the hit compounds on Tat activity was determined by measuring F-Luc activity using a Bright-Glo Luciferase Assay Kit (Promega, Madison, WI, USA). For the dose–response assay, cells cultured in 100 μL medium were treated with 50 μL of 1:2 serially diluted compounds at concentrations ranging from 0 to 12.5 µM and then treated with 50 μL of Dox (final concentration: 50 ng/mL). At 24 h post-treatment, the F-Luc activity was determined as described above. All luminescence assays were carried out in a SpectraMax Paradigm Microplate Reader (Molecular Devices, San Jose, CA, USA), and the data were expressed as a relative percentage (%) compared to the DMSO control (vehicle) in the presence of Dox. The experiments were performed in triplicate.

Data set [2] relates to HIV-1NL4-3. The experiment in a line: HIV-1 infectivity in TZM-bl cells (LTR-driven F-Luc). In kind it is cell-based. The following applies: for IC50: read-out: IC50 of Infectivity. The protocol: as §1
(§2) To determine the inhibitory effect of hit compounds on HIV-1 infection, we used TZM-bl cells (also referred to as JC53BL-13), which express HIV-1 receptors and contain the LTR-driven F-Luc gene controlled by HIV-1 infection, as described previously but with some minor modifications. Briefly, 1 × 10^4 TZM-bl cells cultured on 96-well plates were treated in triplicate wells with 1:2 serially diluted compounds at concentrations ranging from 0 to 12.5 µM. Subsequently, the cells were infected with HIV-1NL4-3 virus obtained from the transfection of 293T cells at a multiplicity of infection (MOI) of 1. At 24 h after infection, the inhibitory effect of the hit compounds on infectivity was determined using the Bright-Glo Luciferase Assay Kit (Promega). The dose–response data are expressed as a relative percentage compared to the DMSO control (vehicle). The inhibitory effects of the hit compounds on HIV-1 replication were determined as previously described. Briefly, 4 × 10^5 PBMCs pre-activated with phytohemagglutinin M (PHA-M) were washed with fresh media and then infected with HIV-1NL4-3 or HIV-1AD8 at an MOI of 0.1 by spinoculation for 2 h. After infection, the cells were treated with hit compounds at the indicated concentrations at 3–5 days after treatment, and the inhibitory effect of hit compounds on viral replication was determined by the titration of virions from the cell supernatant using a p24 […]™ Assay Kit (PerkinElmer) according to the manufacturer’s instructions. Cell viability was determined using resazurin-based PrestoBlue™ cell viability reagent (Thermo Fisher Scientific, Waltham, MA, USA) according to the manufacturer’s instructions. The data are presented as relative percentages compared to the DMSO control (vehicle). The experiments were performed in triplicate.

The target in data set [3] is TAR RNA. The experiment in a line: RNA gel mobility shift assay (biotinylated TAR RNA and ARM peptide). Format: binding, HIV-1. The following applies: 2 nM biotinylated TAR RNA, 100 nM ARM peptide. The protocol: To determine the inhibitory effect of hit compounds on the Tat (ARM)-TAR RNA interaction, a gel shift assay was carried out using the LightShift Chemiluminescent RNA EMSA Kit (Thermo Scientific) according to the manufacturer’s instructions, but with minor modifications suitable for our experiment. Briefly, 2 nM of 5′-biotinylated TAR RNA (nt 31) and 100 nM of ARM peptide were incubated with increasing amounts of hit compounds in the 1× REMSA binding buffer (10 mM HEPES pH 7.5, 10 mM MgCl2, 5 mM KCl, 1 mM DTT, and v/v 5 % glycerol) supplemented with 8 units/reaction of RNase OUT (Invitrogen) (final: 20 µL) at 20 °C for 20 min. Subsequently, the reaction was separated on a 3–12% native gradient PAGE gel. The RNA was then transferred to a nylon membrane to detect the mobility-shifted biotinylated TAR RNA using StAV-horseradish peroxidase conjugate. Chemiluminescence was detected using a GBox Chemi chemi-luminometer (Syngene, Fredrick, MD, USA).

The test system of data set [4] is HIV-1AD8 (R5-tropic). The experiment in a line: HIV-1 replication assay in PBMCs (p24), HIV-1AD8. The following applies: PHA-preactivated PBMCs, MOI 0.1, 72 h; 460-G06 at 12.5-100 nM. Format: cell-based. The method, then:
(§3) Figure 6 Phytohemagglutinin-preactivated peripheral blood mononuclear cells were infected with HIV-1NL4-3 (A) or HIV-1AD8 (B) at an MOI of 0.1 for 2 h and then treated with compounds at indicated concentrations for 72 h. […] The data are expressed as the mean ± SD (n = 3). * p < 0.05 indicates a comparison with the cells treated with DMSO (vehicle). ARVs, anti-retroviral drugs; EFV, efavirenz; DOL, dolutegravir; AZT, azidothymidine.
(§4) The experiments were performed in triplicate.

Data set [5] relates to HIV-1NL4-3 (X4-tropic). The experiment in a line: HIV-1 replication assay in PBMCs (p24), HIV-1NL4-3. Format: cell-based. The following applies: PHA-preactivated PBMCs, MOI 0.1, 72 h; 460-G06 at 12.5-100 nM. The protocol:
as §3, §4

The test system of data set [6] is TZM-bl cells. In words: in vitro. The following applies: TZM-bl cells. The protocol: as §1
as §2, with “Subsequently, the cells were infected with HIV-1NL4-3 virus obtained from the transfection of 293T cells at a multiplicity of infection (MOI) of 1.” left out, “Briefly, 4 × 10^5 PBMCs pre-activated with phytohemagglutinin M (PHA-M) were washed with fresh media and then infected with HIV-1NL4-3 or HIV-1AD8 at an MOI of 0.1 by spinoculation for 2 h.” left out, “The data are presented as relative percentages compared to the DMSO control (vehicle). The experiments were performed in triplicate.” left out

Data set [7] relates to Tat (ARM)-TAR RNA interaction. The following applies: 10-fold excess competitor, 50 nM analytes. The protocol:
To test whether our assay is applicable for screening specific inhibitors of the Tat-TAR RNA interaction, inhibition assays were performed with known inhibitors of the Tat-TAR RNA interaction. […] A dose–response competition assay was conducted at inhibitor concentrations of 0–100 μM to determine their inhibitory curves in our assay. […] Additionally, a dose-responsive competition assay using RNA fragments was performed to validate the specificity of the assay.
Data are expressed as the mean ± SD (n = 3) compared to a control lacking an RNA competitor.
The indicated concentrations of ARM and Cy5-TAR RNA fragments were incubated in 20 μL of 1× LANCE ultra assay buffer in 384-well microtiter plates with or without inhibitor (competitor) for 30 min at 20 °C in the dark. […] The reaction was performed in a final volume of 25 μL. Small volumes of the reaction solution were added automatically using Assist-Plus (Integra Bioscience, Zisers, Switzerland). After adding all the assay components, the plates were sealed with a clear cover. The ARM-TAR RNA interaction signal was measured in an EnSight multimode plate reader (PerkinElmer) using the LANCE protocol of the time-resolved fluorescence (TRF) mode in the Kaleido software (PerkinElmer), according to the manufacturer’s protocol. Briefly, the excitation light was directed to the donor (Eu) from the Xenon flash lamp at 320 nm selected by an optical filter, and then, an integration time of 100 μs and a delay time of 70 μs were provided to remove short-lived background signals; subsequently, two emission lights were detected at 615 nm for the donor (Eu) and 665 nm for the acceptor (Cy5). The TRF was measured from the top using an excitation filter and emission monochromators in a single measurement mode. The TR-FRET output signal was expressed as the emission ratio of acceptor/donor (665/615 nm × 1000) fluorescence counts. The fold activity of the TR-FRET signal for ARM-TAR RNA interaction was calculated compared to the control reaction lacking the ARM peptide.

Setting [8] is: TZM-bl cells, HIV-1NL4-3 MOI 1, 24 h, 0-12.5 μM.
[9] abbreviates: bl-DTR cells, Dox 50 ng/mL, 24 h, F-Luc, 0-12.5 μM.

For orientation: IC50 means the concentration that inhibits the measured activity by half. On to `O=C(O)C1CCCc2sc(C=Cc3cc(Cl)c4c(c3)OCCO4)nc21` (centres unmarked) [Hit 458-F08, 2-(2-(8-Chloro-2,3-dihydrobenzo[b][1,4]dioxin-6-yl)vinyl)-4,5,6,7-tetrahydrobenzo[d]thiazole-4-carboxylic acid], for which the “dose response of Tat activity (F-Luc), in words” value (from here on “dose response of Tat activity”) in data set [1] (0-12.5 μM, bl-DTR cells) is listed as “gradual dose-responsive inhibitory effect on Tat activity”. In data set [2] (setting [8]), the IC50 turned out to be 1.29 ± 0.384 µM.
Consider `Cc1onc(-c2ccccn2)c1C(=O)Nc1ncc(C2CCNCC2)s1` [Hit 459-G07, 5-Methyl-N-(5-(piperidin-4-yl)thiazol-2-yl)-3-(pyridin-2-yl)isoxazole-4-carboxamide], for which the “dose response of Tat activity” value in data set [1] (0-12.5 μM, bl-DTR cells) is given as “gradual dose-responsive inhibitory effect on Tat activity”. Moreover, the IC50 in data set [1] (setting [9]) stood at 3.93 ± 0.338 µM.
For the compound `N=c1n(Cc2ccc(F)cc2F)c2ccccc2n1CC(O)Cn1c(-c2ccc(C(F)(F)F)cc2)noc1=O` (centres unmarked) [Hit 460-F06, 4-(3-(3-(2,4-Difluorobenzyl)-2-imino-2,3-dihydro-1H-benzo[d]imidazol-1-yl)-2-hydroxypropyl)-3-(4-(trifluoromethyl)phenyl)-1,2,4-oxadiazol-5(4H)-one], the half-inhibitory concentration (IC50) in data set [1] (setting [9]) was determined as 3.2 ± 0.438 µM.
For the compound `CC(C)C(CNc1nc(-c2ccsc2)nc2ccccc12)N1CCN(C)CC1` (centres unmarked) [Hit 461-H04, N-(3-Methyl-2-(4-methylpiperazin-1-yl)butyl)-2-(thiophen-3-yl)quinazolin-4-amine], in data set [1] (0-12.5 μM, bl-DTR cells), the “dose response of Tat activity” value was “gradual dose-responsive inhibitory effect on Tat activity”. In addition, the IC50 in data set [1] (setting [9]) amounted to 10.1 ± 2.73 µM.
As for `Cc1ccc(-c2csc3ncnc(NCCCc4n[nH]c(N)c4C#N)c23)cc1` [Hit 463-B11, 5-Amino-3-(3-(5-p-tolylthieno[2,3-d]pyrimidin-4-ylamino)propyl)-1H-pyrazole-4-carbonitrile], the “dose response of Tat activity” value in data set [1] (0-12.5 μM, bl-DTR cells) is “gradual dose-responsive inhibitory effect on Tat activity”. In addition, the IC50 worked out at 6.82 ± 1.88 µM in data set [1] (setting [9]) and 5.03 ± 0.31 µM in data set [2] (setting [8]).
A word on the Kd: it is the constant that tells how readily two partners part at equilibrium. As for `Cc1nn2c(nc(NC3CCCN(C)C3)c3ccccc32)c1Cl` (centres unmarked) [Hit 463-H08, 3-chloro-2-methyl-N-(1-methylpiperidin-3-yl)pyrazolo[1,5-a]quinazolin-5-amine], in data set [3], the Kd is about 1 mM. For the same compound, the “dissociation of ARM from TAR RNA, in words” value in data set [3] is “relatively less dissociation effect”. Also, the “inhibition of viral replication, in words” value in data set [4] and in data set [5] was “less inhibitory effect on viral replication” in each case. In data set [1] (0-12.5 μM, bl-DTR cells), the “dose response of Tat activity” value is “gradual inhibition of F-Luc activity”. The IC50 in data set [1] (Human immunodeficiency virus 1, 24 h) is 2.37 ± 0.16 µM; in data set [2] (Human immunodeficiency virus 1, TZM-bl, 24 h), 8.05 ± 0.488 µM. In addition, the “SI (selectivity index)” value in data set [2] (TZM-bl cells) was over 1.552.
The CC50 is the concentration giving 50% cytotoxicity. Read a high CC50 as better tolerance by the cells. Turning to `Cc1ccc(Nc2cc3c(n[n+]([O-])n3CCCN3CCCCC3)c3c2C(=O)c2ccccc2C3=O)cc1` [Hit 464-A09, 6,11-Dioxo-3-(3-(piperidin-1-yl)propyl)-5-(p-tolylamino)-6,11-dihydro-3H-anthra[1,2-d][1,2,3]triazole 2-oxide], the “dose response of Tat activity” value in data set [1] (0-12.5 μM, bl-DTR cells) is on record as “gradual dose-responsive inhibitory effect on Tat activity”. The “inhibitory effect on Tat, in words” value in data set [1] (3.13 μM) is recorded as “strong inhibitory effect”. The 50% inhibitory concentration (IC50) amounted to 2.27 ± 0.518 µM in data set [1] (setting [9]) and 2.03 ± 0.132 µM in data set [2] (setting [8]). Also, the “toxicity, in words” value in data set [6] (6.25 μM) is “sudden severe toxicity”. The same compound came in with a CC50 in data set [6] (concentration that reduces cell viability by 50%) of 3.36 ± 0.16 µM. The “inhibitory effect on HIV-1, in words” value in data set [2] (3.13 μM) is reported as “strong inhibitory effect”.
Regarding GISYGDKKDDQEERA [mt ARM], the “TR-FRET signal in peptide/protein competition assay, in words” value in data set [7] is on record as “neither mt ARM nor BSA affected their interaction signals”.

The record behind these values is paper PMC10252837, “A Novel Time-Resolved Fluorescence Resonance Energy Transfer Assay for the Discovery of Small-Molecule Inhibitors of HIV-1 Tat-Regulated Transcription” (International Journal of Molecular Sciences, 2023).
